Data as given in patent US20260324636A1, “COMPOSITION FOR PROVIDING PLANT WITH STRESS RESISTANCE” (KIRIN HOLDINGS KABUSHIKI KAISHA, priority 2022, published 2026).

Tests used:
hop [1] = experiment: High-temperature stress resistance in hop (fresh weight of aboveground part), Example 4; assay type: in vivo, hop (variety: Saaz); conditions: 0.1 mM in agar medium, 30° C. 2 weeks
Experimental: A hop strain (the variety: Saaz) was used as an experimental material. Hop seedlings were purchased from Hananoyakata (http://hananoyakata.shop-pro.jp).
Tissue-cultured seedlings required for evaluation of high temperature response of a hop were prepared in a laboratory. A stem fragment including a node was removed from a Saaz seedling as an explant and incubated with 70 (v/v) % ethanol (FUJIFILM Wako) for 1 minute and with 1 (v/v) % sodium hypochlorite (FUJIFILM Wako) for 5 minutes for sterilization. The explant was washed with sterile water for 1 minute, washing was repeated 3 times, moisture was removed therefrom with a paper towel, the explant was inoculated in an agar medium containing a ½ Murashige and Skoog Plant Salt Mixture, 2 (w/v) % glucose, and 0.2 (w/v) % gellan gum (FUJIFILM Wako), and culture was initiated in an incubator. The incubator was maintained at a temperature of 20° C. for a daily cycle of 16 hours light and 8 hours darkness. Two weeks after the initiation of culture, axillary buds extending from the nodes were cut and inoculated into an agar medium, and the sufficiently grown seedlings were designated as “tissue-cultured seedlings.” Tissue-cultured seedlings were subcultured by inoculating apical buds into fresh agar media every 1.5 months. […]

OsHSFA2E = OsHSFA2E gene expression by real-time PCR, Example 6; assay type: in vivo, rice; conditions: Oryza sativa; 0.5 mM in medium, 30° C. for 2 hours, aboveground part; read-out: OsHSFA2E expression level, increase vs control
Excerpt: In order to design primers for the target genes necessary for gene expression analysis by real-time PCR, homologs of Arabidopsis thaliana high-temperature-responsive genes in rice were searched for. The amino acid sequence of Arabidopsis thaliana HSFA2 (AGI code: AT2G26150) was obtained from TAIR (https://www.arabidopsis.org/), and the nucleotide sequence of the homolog was obtained using RAP-DB (https://rapdb.dna.affrc.go.jp/). As a reference gene, the nucleotide sequence of the homolog of Arabidopsis thaliana ACTIN2 (AGI code: AT3G18780) was also obtained. Homolog genes in rice were designated as OsHSFA2E and OsACT1, respectively.
The materials as used in Example 3 were used.
The method as employed in Example 3 was employed.
The rice samples subjected to germination for 3 days were inoculated into a liquid medium consisting of a ½ Murashige and Skoog Plant Salt Mixture. Specifically, a liquid medium was dispensed at 3 ml/well to a 12-well microplate (IWAKI), and 3 samples were transferred to each well. N-acetylglutamic acid was applied to each well to the final concentration of 0.5 mM in the medium, incubation was performed at 30° C. for 2 hours, and RNA was extracted from the aboveground part using the RNeasy Plant Mini Kit. […]
Thereafter, the relative expression level of the target gene upon N-acetylglutamic acid treatment was calculated by the ΔΔCt method.

hop [2] = experiment: Oxidation stress resistance against methyl viologen in hop leaves (leaf chlorosis, chlorophyll content), Example 10; assay type: in vivo, hop (variety: Hersbrucker); conditions: 1 mM, 5 μM methyl viologen, 22° C. 4 days
Experimental: A hop strain (the variety: Hersbrucker) was used as an experimental material. Hop seedlings grown in the field of Kirin Brewery Company, Limited in Iwate, Japan were used.
A Murashige and Skoog Plant Salt Mixture 2.2 g and glucose 20 g (FUJIFILM Wako) were dissolved in 1 l of pure water, and a pH was adjusted to 5.8. Thereafter, agar (8 g (Ina Food Industry Co., Ltd.) was dissolved and autoclaved (121° C., 15 minutes).
A Murashige and Skoog Plant Salt Mixture 2.2 g and glucose 20 g were dissolved in 1 l of pure water, a pH was adjusted to 5.8, and the resultant was autoclaved (121° C., 20 minutes).
Tissue-cultured seedlings required for evaluation of oxidation stress response of a hop were prepared in a laboratory. […]
Leaf chlorosis is observed in plants upon oxidation stress exposure. Thus, an extent of chlorosis was evaluated by measuring the content of the green pigment chlorophyll in leaves.
Plants in a well (3 leaves) was transferred to a 1.5-ml tube containing 1 ml of N,N-dimethylformamide and incubated at 4° C. in the dark for 1 day to extract the chlorophyll. The absorbance of the extract was measured at 647 nm and 664 nm, respectively, to calculate the chlorophyll content on a leaf fresh weight basis. The chlorophyll content was calculated in the same manner as in Example 1.

SMILES: CC(=O)N[C@@H](CCC(=O)O)C(=O)O [N-acetylglutamic acid]
- fresh weight of the aboveground part, increase relative to the group not subjected to the treatment (hop [1]): 1.8 times
- decrease in the fresh weight of the aboveground part caused by the high-temperature treatment (hop [1]; vs control group): suppressed
- fold induction at 500 µM (OsHSFA2E): 1.4
- leaf chlorosis in MV-treated group, compared with control group (hop [2]): more suppressed
- decrease in the chlorophyll content in the MV-treated groups, compared with the control group (hop [2]; leaf fresh weight basis): suppressed
